# Values of other authors as cited in patent publication US20260272907A1, “Therapeutic Tyrosine Kinase Inhibitors for Multiple Sclerosis” (Principia Biopharma Inc., priority 2022, published 2026).
# System: RMS patients
# Settings: from Week 12; cited from earlier work
compound,measurement,value
C=CC(=O)N1CCC(CNc2ncnc(N)c2-c2ccc(Oc3ccccc3)cc2)CC1 [evobrutinib],Reduction of new Gd-enhancing T1 lesions,meaningful reduction
